# Test results reported in article PMC7407272, “Induction of Lysosome Membrane Permeabilization as a Therapeutic Strategy to Target Pancreatic Cancer Stem Cells” (Cancers, 2020).
# Key:
# [1] = target: T1, IRAK4 (Homo sapiens, UniProt Q9NWZ3); experiment: KINOMEscan; format: binding; conditions: read-out: % Ctrl
# T1 construct: purchased DiscoveRx KINOMEscan
# [2] = target: T2, TRKB (Homo sapiens, UniProt Q16620); experiment: KINOMEscan; format: binding; conditions: read-out: % Ctrl
# T2 construct: purchased DiscoveRx KINOMEscan
# T2 sequence (Q16620 32-822): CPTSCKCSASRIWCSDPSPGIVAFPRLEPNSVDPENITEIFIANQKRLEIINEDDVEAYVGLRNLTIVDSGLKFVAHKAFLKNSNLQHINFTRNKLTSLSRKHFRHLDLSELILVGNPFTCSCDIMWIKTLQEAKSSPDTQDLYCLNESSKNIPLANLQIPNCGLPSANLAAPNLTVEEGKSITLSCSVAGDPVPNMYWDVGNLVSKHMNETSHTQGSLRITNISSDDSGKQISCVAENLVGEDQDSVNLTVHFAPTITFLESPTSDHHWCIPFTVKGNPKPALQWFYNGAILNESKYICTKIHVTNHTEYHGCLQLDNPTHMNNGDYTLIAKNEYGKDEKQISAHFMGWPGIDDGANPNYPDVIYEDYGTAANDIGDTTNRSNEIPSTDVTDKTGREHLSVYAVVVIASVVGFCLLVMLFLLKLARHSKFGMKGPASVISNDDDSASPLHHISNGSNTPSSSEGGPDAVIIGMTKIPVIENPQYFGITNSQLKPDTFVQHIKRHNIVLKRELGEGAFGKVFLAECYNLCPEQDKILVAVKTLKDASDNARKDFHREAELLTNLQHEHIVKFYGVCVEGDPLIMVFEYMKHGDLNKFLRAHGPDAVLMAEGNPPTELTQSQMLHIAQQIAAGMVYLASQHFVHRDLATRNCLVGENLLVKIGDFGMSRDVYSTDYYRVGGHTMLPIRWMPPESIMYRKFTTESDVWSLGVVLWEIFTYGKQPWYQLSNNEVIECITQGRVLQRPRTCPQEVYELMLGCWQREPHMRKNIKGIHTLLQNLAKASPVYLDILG
# [3] = target: T3, CHEK2 (Homo sapiens, UniProt O96017); experiment: KINOMEscan; format: binding; conditions: read-out: % Ctrl
# T3 construct: purchased DiscoveRx KINOMEscan
# [4] = target: T4, FES (Homo sapiens, UniProt P07332); experiment: KINOMEscan; format: binding; conditions: read-out: % Ctrl
# T4 construct: purchased DiscoveRx KINOMEscan
# [5] = target: T5, CAMK2D (Homo sapiens, UniProt Q13557); experiment: KINOMEscan; format: binding; conditions: read-out: % Ctrl
# T5 construct: purchased DiscoveRx KINOMEscan
# T5 sequence (Q13557 whole entry): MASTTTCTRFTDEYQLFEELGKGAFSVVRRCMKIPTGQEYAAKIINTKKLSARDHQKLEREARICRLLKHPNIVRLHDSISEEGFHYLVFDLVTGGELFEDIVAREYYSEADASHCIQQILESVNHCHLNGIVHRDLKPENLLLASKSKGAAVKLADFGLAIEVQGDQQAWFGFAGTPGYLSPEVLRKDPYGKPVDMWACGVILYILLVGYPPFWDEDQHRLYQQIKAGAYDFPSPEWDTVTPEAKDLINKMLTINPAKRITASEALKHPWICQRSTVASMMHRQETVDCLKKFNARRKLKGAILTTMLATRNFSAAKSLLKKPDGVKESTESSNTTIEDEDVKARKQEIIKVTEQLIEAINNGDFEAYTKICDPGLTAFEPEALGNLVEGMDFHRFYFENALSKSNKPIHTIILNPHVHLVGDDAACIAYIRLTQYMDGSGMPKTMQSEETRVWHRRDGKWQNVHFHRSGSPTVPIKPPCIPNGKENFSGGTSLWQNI
# [6] = target: T6, KIT-autoi. (Homo sapiens, UniProt P10721); experiment: KINOMEscan; format: binding; conditions: read-out: % Ctrl
# T6 construct: purchased DiscoveRx KINOMEscan
# [7] = target: T7, SRPK3 (Homo sapiens, UniProt Q9UPE1); experiment: KINOMEscan; format: binding; conditions: read-out: % Ctrl
# T7 construct: purchased DiscoveRx KINOMEscan
# [8] = target: T8, HIPK3 (Homo sapiens, UniProt Q9H422); experiment: KINOMEscan; format: binding; conditions: read-out: % Ctrl
# T8 construct: purchased DiscoveRx KINOMEscan
# [9] = target: T9, PKMYT1 (Homo sapiens, UniProt Q99640); experiment: KINOMEscan; format: binding; conditions: read-out: % Ctrl
# T9 construct: purchased DiscoveRx KINOMEscan
# T9 sequence (Q99640 whole entry): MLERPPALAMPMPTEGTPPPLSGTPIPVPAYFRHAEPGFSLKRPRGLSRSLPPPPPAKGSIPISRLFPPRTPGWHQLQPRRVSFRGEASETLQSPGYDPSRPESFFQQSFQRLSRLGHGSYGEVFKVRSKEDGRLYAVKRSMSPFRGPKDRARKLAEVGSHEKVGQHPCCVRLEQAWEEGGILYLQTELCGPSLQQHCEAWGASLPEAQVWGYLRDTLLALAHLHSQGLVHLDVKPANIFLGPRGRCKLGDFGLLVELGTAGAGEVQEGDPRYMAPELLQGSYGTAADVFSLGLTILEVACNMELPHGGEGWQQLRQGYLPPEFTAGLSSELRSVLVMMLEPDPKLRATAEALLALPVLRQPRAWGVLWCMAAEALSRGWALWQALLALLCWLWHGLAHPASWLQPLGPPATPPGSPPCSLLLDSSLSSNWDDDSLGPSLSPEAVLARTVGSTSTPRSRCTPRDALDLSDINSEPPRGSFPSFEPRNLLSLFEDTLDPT
# [10] = target: T10, BTK (Homo sapiens, UniProt Q06187); experiment: KINOMEscan; format: binding; conditions: read-out: % Ctrl
# T10 construct: purchased DiscoveRx KINOMEscan
# [11] = target: T11, PAK2 (Homo sapiens, UniProt Q13177); experiment: KINOMEscan; format: binding; conditions: read-out: % Ctrl
# T11 construct: purchased DiscoveRx KINOMEscan
# [12] = target: T12, FRK (Homo sapiens, UniProt P42685); experiment: KINOMEscan; format: binding; conditions: read-out: % Ctrl
# T12 construct: purchased DiscoveRx KINOMEscan
# [13] = target: T13, SNRK (Homo sapiens, UniProt Q9NRH2); experiment: KINOMEscan; format: binding; conditions: read-out: % Ctrl
# T13 construct: purchased DiscoveRx KINOMEscan
# [14] = target: T14, RET(V804L) (Homo sapiens, UniProt P07949, V804L); experiment: KINOMEscan; format: binding; conditions: read-out: % Ctrl
# T14 construct: purchased DiscoveRx KINOMEscan
# [15] = target: T15, MET(Y1235D) (Homo sapiens, UniProt P08581, Y1235D); experiment: KINOMEscan; format: binding; conditions: read-out: % Ctrl
# T15 construct: purchased DiscoveRx KINOMEscan
# [16] = target: T16, DYRK2 (Homo sapiens, UniProt Q92630); experiment: KINOMEscan; format: binding; conditions: read-out: % Ctrl
# T16 construct: purchased DiscoveRx KINOMEscan
# [17] = target: T17, PFPK5(P.falciparum) (Plasmodium falciparum, UniProt P61075); experiment: KINOMEscan; format: binding; conditions: read-out: % Ctrl
# T17 construct: purchased DiscoveRx KINOMEscan
# T17 sequence (P61075 whole entry): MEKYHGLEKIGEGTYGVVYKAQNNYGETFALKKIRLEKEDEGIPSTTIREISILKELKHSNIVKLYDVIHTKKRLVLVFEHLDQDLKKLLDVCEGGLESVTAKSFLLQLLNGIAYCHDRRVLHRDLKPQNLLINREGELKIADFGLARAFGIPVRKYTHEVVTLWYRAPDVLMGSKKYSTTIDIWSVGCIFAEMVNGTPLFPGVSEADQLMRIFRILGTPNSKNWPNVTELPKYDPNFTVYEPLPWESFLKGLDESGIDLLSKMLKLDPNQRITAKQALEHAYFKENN
# [18] = target: T18, HPK1 (Homo sapiens, UniProt Q92918); experiment: KINOMEscan; format: binding; conditions: read-out: % Ctrl
# T18 construct: purchased DiscoveRx KINOMEscan
# [19] = target: T19, EGFR(E746-A750del) (Homo sapiens, UniProt P00533, DEL746-750); experiment: KINOMEscan; format: binding; conditions: read-out: % Ctrl
# T19 construct: purchased DiscoveRx KINOMEscan
# [20] = target: T20, SIK (Homo sapiens, UniProt P57059); experiment: KINOMEscan; format: binding; conditions: read-out: % Ctrl
# T20 construct: purchased DiscoveRx KINOMEscan
# [21] = target: PIM3 (Homo sapiens, UniProt Q86V86); experiment: KINOMEscan; format: binding; parameters: purchased DiscoveRx KINOMEscan; conditions: read-out: % Ctrl
# [22] = target: T21, PLK4 (Homo sapiens, UniProt O00444); experiment: KINOMEscan; format: binding; conditions: read-out: % Ctrl
# T21 construct: purchased DiscoveRx KINOMEscan
# [23] = target: T22, MERTK (Homo sapiens, UniProt Q12866); experiment: KINOMEscan; format: binding; conditions: read-out: % Ctrl
# T22 construct: purchased DiscoveRx KINOMEscan
# [24] = target: T23, NEK10 (Homo sapiens, UniProt Q6ZWH5); experiment: KINOMEscan; format: binding; conditions: read-out: % Ctrl
# T23 construct: purchased DiscoveRx KINOMEscan
# [25] = target: T24, CDKL2 (Homo sapiens, UniProt Q92772); experiment: KINOMEscan; format: binding; conditions: read-out: % Ctrl
# T24 construct: purchased DiscoveRx KINOMEscan
# T24 sequence (Q92772 whole entry): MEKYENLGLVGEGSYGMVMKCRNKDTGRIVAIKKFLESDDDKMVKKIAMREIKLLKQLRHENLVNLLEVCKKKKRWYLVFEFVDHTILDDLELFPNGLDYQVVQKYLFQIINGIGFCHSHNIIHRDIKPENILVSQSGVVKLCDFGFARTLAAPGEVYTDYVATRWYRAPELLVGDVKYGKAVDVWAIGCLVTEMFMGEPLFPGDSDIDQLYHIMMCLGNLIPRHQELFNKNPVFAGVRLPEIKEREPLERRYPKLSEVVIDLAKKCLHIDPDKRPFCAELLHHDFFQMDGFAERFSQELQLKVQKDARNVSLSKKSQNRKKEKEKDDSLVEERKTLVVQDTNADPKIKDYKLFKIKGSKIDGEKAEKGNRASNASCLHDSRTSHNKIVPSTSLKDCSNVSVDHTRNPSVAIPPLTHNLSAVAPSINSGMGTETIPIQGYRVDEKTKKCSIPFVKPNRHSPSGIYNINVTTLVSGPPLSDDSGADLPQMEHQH
# [26] = target: T25, NEK4 (Homo sapiens, UniProt P51957); experiment: KINOMEscan; format: binding; conditions: read-out: % Ctrl
# T25 construct: purchased DiscoveRx KINOMEscan
# [27] = target: T26, ABL1(Q252H)-nonP (Homo sapiens, UniProt P00519, Q252H); experiment: KINOMEscan; format: binding; conditions: read-out: % Ctrl
# T26 construct: purchased DiscoveRx KINOMEscan
# [28] = target: T27, NEK3 (Homo sapiens, UniProt P51956); experiment: KINOMEscan; format: binding; conditions: read-out: % Ctrl
# T27 construct: purchased DiscoveRx KINOMEscan
# [29] = target: T28, FLT3(D835Y) (Homo sapiens, UniProt P36888, D835Y); experiment: KINOMEscan; format: binding; conditions: read-out: % Ctrl
# T28 construct: purchased DiscoveRx KINOMEscan
# [30] = target: T29, PFCDPK1(P.falciparum) (Plasmodium falciparum, UniProt P62344); experiment: KINOMEscan; format: binding; conditions: read-out: % Ctrl
# T29 construct: purchased DiscoveRx KINOMEscan
# T29 sequence (P62344 whole entry): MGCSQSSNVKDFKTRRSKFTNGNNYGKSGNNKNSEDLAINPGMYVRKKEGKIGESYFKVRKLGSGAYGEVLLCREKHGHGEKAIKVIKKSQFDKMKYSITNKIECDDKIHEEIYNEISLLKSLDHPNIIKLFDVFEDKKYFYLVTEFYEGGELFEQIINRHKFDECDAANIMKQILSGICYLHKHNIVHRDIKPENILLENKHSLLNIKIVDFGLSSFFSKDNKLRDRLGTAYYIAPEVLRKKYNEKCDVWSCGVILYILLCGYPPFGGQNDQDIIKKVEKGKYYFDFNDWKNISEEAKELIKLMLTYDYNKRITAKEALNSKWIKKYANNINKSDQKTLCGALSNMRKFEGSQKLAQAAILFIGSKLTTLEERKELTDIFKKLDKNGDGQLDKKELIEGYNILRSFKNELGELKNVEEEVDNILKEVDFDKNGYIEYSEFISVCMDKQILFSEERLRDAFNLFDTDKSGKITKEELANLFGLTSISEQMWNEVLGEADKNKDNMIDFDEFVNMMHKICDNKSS
# [31] = target: T30, MAP4K2 (Homo sapiens, UniProt Q12851); experiment: KINOMEscan; format: binding; conditions: read-out: % Ctrl
# T30 construct: purchased DiscoveRx KINOMEscan
# [32] = target: T31, ABL1(E255K)-P (Homo sapiens, UniProt P00519, E255K); experiment: KINOMEscan; format: binding; conditions: read-out: % Ctrl
# T31 construct: purchased DiscoveRx KINOMEscan
# [33] = target: T32, TYK2 (Homo sapiens, UniProt P29597); experiment: TYK2 kinase assay (ProQinase); format: biochemical; conditions: kinase orthogonal assay
# T32 construct: purchased ProQinase
# [34] = target: T33, KIT (Homo sapiens, UniProt P10721); experiment: KINOMEscan; format: binding; conditions: read-out: % Ctrl
# T33 construct: purchased DiscoveRx KINOMEscan
# [35] = target: T34, KIT(D816H) (Homo sapiens, UniProt P10721, D816H); experiment: KINOMEscan; format: binding; conditions: read-out: % Ctrl
# T34 construct: purchased DiscoveRx KINOMEscan
# [36] = target: T35, MARK4 (Homo sapiens, UniProt Q96L34); experiment: KINOMEscan; format: binding; conditions: read-out: % Ctrl
# T35 construct: purchased DiscoveRx KINOMEscan
# [37] = target: T36, MYO3B (Homo sapiens, UniProt Q8WXR4); experiment: KINOMEscan; format: binding; conditions: read-out: % Ctrl
# T36 construct: purchased DiscoveRx KINOMEscan
# [38] = target: T37, PRKD3 (Homo sapiens, UniProt O94806); experiment: KINOMEscan; format: binding; conditions: read-out: % Ctrl
# T37 construct: purchased DiscoveRx KINOMEscan
# T37 sequence (O94806 whole entry): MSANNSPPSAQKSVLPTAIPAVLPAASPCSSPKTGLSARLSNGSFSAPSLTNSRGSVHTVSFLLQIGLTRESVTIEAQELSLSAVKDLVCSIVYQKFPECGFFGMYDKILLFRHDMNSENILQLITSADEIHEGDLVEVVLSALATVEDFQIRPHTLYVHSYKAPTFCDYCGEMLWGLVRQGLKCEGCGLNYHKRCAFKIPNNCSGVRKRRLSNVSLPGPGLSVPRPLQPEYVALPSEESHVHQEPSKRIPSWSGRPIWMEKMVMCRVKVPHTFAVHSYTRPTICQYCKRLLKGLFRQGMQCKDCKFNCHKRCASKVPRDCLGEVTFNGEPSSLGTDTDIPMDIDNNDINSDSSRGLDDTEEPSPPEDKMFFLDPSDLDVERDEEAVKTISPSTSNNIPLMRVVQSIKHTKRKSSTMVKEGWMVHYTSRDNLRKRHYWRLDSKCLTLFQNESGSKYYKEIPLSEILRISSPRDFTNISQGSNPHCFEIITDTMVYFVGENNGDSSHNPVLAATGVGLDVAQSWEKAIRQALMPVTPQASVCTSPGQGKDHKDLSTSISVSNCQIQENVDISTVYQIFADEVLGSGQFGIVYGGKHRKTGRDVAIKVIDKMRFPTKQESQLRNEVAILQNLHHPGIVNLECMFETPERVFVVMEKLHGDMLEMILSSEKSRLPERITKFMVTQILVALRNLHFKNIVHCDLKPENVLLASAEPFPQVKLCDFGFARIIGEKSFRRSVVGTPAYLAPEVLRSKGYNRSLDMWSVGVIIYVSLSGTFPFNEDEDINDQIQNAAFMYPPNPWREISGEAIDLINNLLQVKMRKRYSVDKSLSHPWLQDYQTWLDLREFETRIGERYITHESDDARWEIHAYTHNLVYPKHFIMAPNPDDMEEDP
# [39] = target: T38, PIK3C2G (Homo sapiens, UniProt O75747); experiment: KINOMEscan; format: binding; conditions: read-out: % Ctrl
# T38 construct: purchased DiscoveRx KINOMEscan
# [40] = target: T39, ACVR2A (Homo sapiens, UniProt P27037); experiment: KINOMEscan; format: binding; conditions: read-out: % Ctrl
# T39 construct: purchased DiscoveRx KINOMEscan
# [41] = target: T40, CLK3 (Homo sapiens, UniProt P49761); experiment: KINOMEscan; format: binding; conditions: read-out: % Ctrl
# T40 construct: purchased DiscoveRx KINOMEscan
# T40 sequence (P49761 whole entry): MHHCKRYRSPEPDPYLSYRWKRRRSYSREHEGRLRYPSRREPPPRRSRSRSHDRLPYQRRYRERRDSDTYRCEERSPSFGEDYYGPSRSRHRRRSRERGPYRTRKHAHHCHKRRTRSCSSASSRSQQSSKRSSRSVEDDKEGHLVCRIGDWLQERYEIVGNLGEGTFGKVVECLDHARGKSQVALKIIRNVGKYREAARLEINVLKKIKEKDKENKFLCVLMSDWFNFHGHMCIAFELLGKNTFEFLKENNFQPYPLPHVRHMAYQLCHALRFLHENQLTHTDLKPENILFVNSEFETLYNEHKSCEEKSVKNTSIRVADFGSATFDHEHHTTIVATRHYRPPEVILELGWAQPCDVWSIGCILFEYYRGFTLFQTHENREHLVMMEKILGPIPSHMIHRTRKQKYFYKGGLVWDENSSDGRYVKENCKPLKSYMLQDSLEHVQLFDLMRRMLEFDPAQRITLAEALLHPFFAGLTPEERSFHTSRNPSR
# [42] = target: T41, MRCKB (Homo sapiens, UniProt Q9Y5S2); experiment: KINOMEscan; format: binding; conditions: read-out: % Ctrl
# T41 construct: purchased DiscoveRx KINOMEscan
# [43] = target: T42, TXK (Homo sapiens, UniProt P42681); experiment: KINOMEscan; format: binding; conditions: read-out: % Ctrl
# T42 construct: purchased DiscoveRx KINOMEscan
# T1 sequence (Q9NWZ3 whole entry): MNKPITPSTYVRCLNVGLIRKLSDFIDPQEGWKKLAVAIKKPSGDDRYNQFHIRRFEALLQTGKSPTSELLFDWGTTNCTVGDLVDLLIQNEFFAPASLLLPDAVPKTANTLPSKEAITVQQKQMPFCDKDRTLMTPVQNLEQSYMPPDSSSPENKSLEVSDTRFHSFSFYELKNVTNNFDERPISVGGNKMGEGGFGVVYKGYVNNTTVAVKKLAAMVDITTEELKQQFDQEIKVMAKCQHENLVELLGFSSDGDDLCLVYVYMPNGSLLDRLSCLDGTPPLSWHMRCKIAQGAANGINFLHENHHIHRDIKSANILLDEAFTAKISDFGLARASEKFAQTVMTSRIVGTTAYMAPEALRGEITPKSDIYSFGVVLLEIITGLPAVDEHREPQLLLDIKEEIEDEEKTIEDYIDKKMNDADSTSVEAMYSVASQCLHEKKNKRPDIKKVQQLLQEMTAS
smiles,measurement,setting,value
CN1CCC(CNc2ccc3ncc(C(=O)Nc4cccc(OC(F)(F)F)c4)n3n2)CC1 [Cpd 2],remaining binding at 1 µM,[1],100%
same,remaining binding at 1 µM,[2],89%
same,remaining binding at 1 µM,[3],95%
same,remaining binding at 1 µM,[4],87%
same,remaining binding at 1 µM,[5],99%
same,remaining binding at 1 µM,[6],100%
same,remaining binding at 1 µM,[7],77%
same,remaining binding at 1 µM,[8],100%
same,remaining binding at 1 µM,[9],75%
same,remaining binding at 1 µM,[10],100%
same,remaining binding at 1 µM,[11],94%
same,remaining binding at 1 µM,[12],100%
same,remaining binding at 1 µM,[13],98%
same,remaining binding at 1 µM,[14],100%
same,remaining binding at 1 µM,[15],93%
same,remaining binding at 1 µM,[16],86%
same,remaining binding at 1 µM,[17],97%
same,remaining binding at 1 µM,[18],92%
same,remaining binding at 1 µM,[19],77%
same,remaining binding at 1 µM,[20],99%
same,remaining binding at 1 µM,[21],18%
same,remaining binding at 1 µM,[22],82%
same,remaining binding at 1 µM,[23],88%
same,remaining binding at 1 µM,[24],85%
same,remaining binding at 1 µM,[25],98%
same,remaining binding at 1 µM,[26],100%
same,remaining binding at 1 µM,[27],94%
same,remaining binding at 1 µM,[28],100%
same,remaining binding at 1 µM,[29],65%
same,remaining binding at 1 µM,[30],88%
same,remaining binding at 1 µM,[31],74%
same,remaining binding at 1 µM,[32],85%
same,IC50,[33],65 µM
same,remaining binding at 1 µM,[34],99%
same,remaining binding at 1 µM,[35],91%
same,remaining binding at 1 µM,[36],100%
same,remaining binding at 1 µM,[37],100%
same,remaining binding at 1 µM,[38],92%
same,remaining binding at 1 µM,[39],59%
same,remaining binding at 1 µM,[40],100%
same,remaining binding at 1 µM,[41],93%
same,remaining binding at 1 µM,[42],100%
same,remaining binding at 1 µM,[43],100%
